Measurements published in patent US12402621B2, “Method for increasing longevity and/or bud opening of cut flowers” (LETAVIS AB, priority 2019, dated 2025).

How the values were obtained:
Format in all cases: in vivo
[1] = system: roses of the type Upper class; experiment: Effect of oxytocin on the survival of cut roses of the type Upper class (appearance scores after pretreatment in cold-storage room); conditions: oxytocin 1-10 μmolar in water, cold-storage room 18 days, then tap water at room temperature; assessed at 4, 9, 15 and 20 days; FIG. 2
Source text: The stalks of newly delivered roses of the type Upper class were cut (1 cm from the lowest part of the stem) and thereafter the roses were placed in buckets containing water with different doses of oxytocin (For doses see Table 1 and kept in a cold-storage room for 18 days. Four roses were included in each treatment group.
Thereafter, the roses were moved to a home-like setting with normal room temperature. The stalk of the roses was cut again and the roses were placed in individual vases filled with tap water.
(§1) The assessment criteria were: degree of bud opening (i.e. degree of flower turn-out), degree of drooping (i.e. how bent the stalk was, freshness of the petals, freshness of the sepals and freshness of stem leaves. Each assessment criterion was given a score from 1-5 according to the description. An average score based on all the assessment criteria was also calculated.

[2] = system: roses of the type Furiosa; experiment: Effect of oxytocin on the florescence of cut roses of the type Furiosa (appearance scores after pretreatment in cold-storage room)
Procedure: The stalks of newly delivered roses of the type Furiosa were cut (1 cm from the lowest part of the stem) and thereafter the roses were placed in buckets containing water with different doses of oxytocin (0, 0.1, 1 and 10 μM) and kept in a cold-storage room for […]. Nine roses were included in each treatment group.
Thereafter, the roses were moved to a home like setting with normal room temperature. The stalks of the roses were again cut and the roses were placed in individual vases filled with tap water.
as §1, with “freshness of the stem leaves.” for “freshness of stem leaves.”

[3] = system: roses of the type Belle Rose; experiment: Effect of oxytocin on the survival of cut roses of the type Belle Rose (appearance scores after pretreatment in cold-storage room); conditions: oxytocin 1, 5 and 10 μM in the presence of Chrysal, in particular 10 μM; cold-storage room 3 days, then tap water at room temperature; FIGS. 5 and 6
Procedure: The stalks of newly delivered roses of the type Belle Rose were cut (1 cm from the lowest part of the stem) and thereafter the roses were placed in buckets containing tap water or tap water with different doses of oxytocin (0, 1, 5 and 10 μM in the presence of Chrysal) and kept in a cold-storage room for 3 days. Eight to nine roses were included in each bucket.
Thereafter, the roses were moved to a home like setting with normal room temperature. The stalks of the roses were again cut and the rose bouquets were placed in vases filled with tap water.
as §1, with “The appearance of the roses was assessed at 0, 2, 4, 7 10 and 13 days after being placed in the home like setting according to the criteria shown in Table 2 (see Example 1). The assessment” for “The assessment”, “freshness of the stem leaves.” for “freshness of stem leaves.”

Question: With oxytocin as the substance, how does the “individual assessments (bud opening, drooping, freshness of petals, sepals, stem leaves)” value [1] read?
Answer: The value was “in a positive direction”.

Question: What about the “duration of time during which the roses kept fresh and attractive (days with bud opening score above 1.5)” value ([2]; in particular with 10 μM oxytocin, after being put in tap water in home-like setting, FIG. 4) of the same substance?
Answer: The value was “increased in response to oxytocin”.

Question: And the “degree of bud opening” value ([2]; oxytocin 0.1, 1 and 10 μM, in particular 10 μM, pretreatment in cold-storage room, then tap water at room temperature, FIG. 3)?
Answer: The value was “increased the degree of bud opening”.

Question: What about the “effect on degree of bud opening by length of oxytocin treatment” value ([2]; treatment with oxytocin for 3 days versus 6 hours in cold-storage room, FIG. 3) of the same substance?
Answer: Its value is “more pronounced after treatment with oxytocin for 3 days than for 6 hours”.

Question: And the “duration of time during which the roses kept fresh and attractive” value [3]?
Answer: The value was “increased in response to oxytocin”.

Question: What about the level of florescence [3] of the same substance?
Answer: Its level of florescence is “increased the level of florescence”.
